30 compounds from patent publication US5614526A, “Use of phenoxy-piperzine derivatives” (Hoffmann-La Roche Inc., priority 1995, dated 1997) can be followed below.

pKi: −log10 of the molar value.

The subject of the first experiment is D2 receptor. Put plainly: Binding at the D2 receptor, [3H]spiperone displacement, membranes of D2-CHO cells (selectivity vs. D4). Conditions: ratio of the Ki values at the D2 receptor and at the D4 receptor. The method, then:
CHO cells (Chinese Hamster Ovary) were used in the test. Crude membranes were isolated by ultracentrifugation from D4 -CHO and D2 -CHO cells and were stored at -80° C. After thawing and homogenizing in a buffer solution (50mM Tris, 1 mM EDTA, 5 mM KCl, 1.5 mM CaCl2, 4 mM MgCl2, pH 7.4) they were incubated at room temperature for 90 minutes with 200 pM [^3 H] spiperone and an increasing concentration (1×10^-11 M to 1×10^-4 M) of test compound. A non-specific binding was established by incubating in the presence of 1×10^-5 M (+)-butaclamol. The unbound radioligand was removed by filtration through a GF/C glass filter and the bound radioactivity was determined by scintillation in a Packard TopCount.
Compounds of formula I were compared with respect to their D2 receptor activity.
On to `COc1ccccc1N1CCN(CC(O)COc2ccc([N+](=O)[O-])cc2NC(C)=O)CC1` (stereo not drawn) [Compound 27], for which the “Sel. vs. D2” value is listed as 112.

For `COc1cc(O)ccc1N1CCN(CC(O)COc2ccccc2NC(C)=O)CC1` (stereo not drawn) [Compound 25], the “Sel. vs. D2” value is 1370. The same measure, in the same setting: the result for `CCC(=O)Nc1ccccc1OCC(O)CN1CCN(c2ccccc2)CC1` (stereo not drawn) [Compound 24] reads 233; that for `COc1ccccc1N1CCN(CC(O)COc2ccccc2NS(C)(=O)=O)CC1` (stereo not drawn) [Compound 26], 177; that for `CC(=O)Nc1ccccc1OCC(O)CN1CCN(c2ccccc2[N+](=O)[O-])CC1` (stereo not drawn) [Compound 29], 360. Still for that read-out and setting: the result for `Cc1cccc(OCC(O)CN2CCN(c3ccccc3)CC2)c1` (stereo not drawn) [Compound 23] reads 300.

The next experiment addresses T1, dopamine-D4 receptor (Homo sapiens, UniProt P21917).
T1 construct: expressed in transfected cells; host or cells: CHO (Chinese Hamster Ovary) cells, D4-CHO; crude membranes
T1 sequence (P21917 1-419): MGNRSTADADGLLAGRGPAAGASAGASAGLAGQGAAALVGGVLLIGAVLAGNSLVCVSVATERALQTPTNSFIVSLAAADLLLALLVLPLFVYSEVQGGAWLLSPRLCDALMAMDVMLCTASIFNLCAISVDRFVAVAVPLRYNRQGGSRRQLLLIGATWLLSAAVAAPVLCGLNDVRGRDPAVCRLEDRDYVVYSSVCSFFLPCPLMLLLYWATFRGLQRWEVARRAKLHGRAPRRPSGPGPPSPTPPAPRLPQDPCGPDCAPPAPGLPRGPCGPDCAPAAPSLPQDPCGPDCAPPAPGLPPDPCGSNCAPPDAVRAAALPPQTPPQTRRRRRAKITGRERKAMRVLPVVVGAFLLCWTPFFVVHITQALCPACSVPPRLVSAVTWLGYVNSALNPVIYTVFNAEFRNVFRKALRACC
In words: Binding at the D4 receptor, [3H]spiperone displacement, membranes of D4-CHO cells. Conditions: Table 1, 200 pM [3H]spiperone, room temperature, 90 minutes. As for the experimental part:
Compounds of formula I were characterized by their binding behavior at the D4 receptor. CHO cells (Chinese Hamster Ovary) were used in the test. Crude membranes were isolated by ultracentrifugation from D4 -CHO and D2 -CHO cells and were stored at -80° C. After thawing and homogenizing in a buffer solution (50mM Tris, 1 mM EDTA, 5 mM KCl, 1.5 mM CaCl2, 4 mM MgCl2, pH 7.4) they were incubated at room temperature for 90 minutes with 200 pM [^3 H] spiperone and an increasing concentration (1×10^-11 M to 1×10^-4 M) of test compound. A non-specific binding was established by incubating in the presence of 1×10^-5 M (+)-butaclamol. The unbound radioligand was removed by filtration through a GF/C glass filter and the bound radioactivity was determined by scintillation in a Packard TopCount. […] The calculation of the value was effected with ligand.
By pKi is commonly meant −log10 of the Ki, conventionally taken in molar units. On to `COc1ccccc1N1CCN(CC(O)COc2ccccc2NC(C)=O)CC1` (single isomer, unassigned) [12(-), [-]-N-[2-[2-Hydroxy-3-[4-(2-methoxy-phenyl)-piperazin-1-yl]-propoxy]phenyl]-acetamide], for which the pKi is > 7.00. On the same count and under the same terms, the figure for `CC(=O)c1ccccc1OCC(O)CN1CCN(c2ccccc2)CC1` (stereo not drawn) [Compound 3, 1-[2-[2-Hydroxy-3-(4-phenyl-piperazin-1-yl)-propoxy]-phenyl]-ethanone] is > 7.00; for `CC(=O)Nc1ccccc1OCC(O)CN1CCN(c2ccccc2C)CC1` (stereo not drawn) [Compound 6, N-[2-[2-Hydroxy-3-(4-o-tolyl-piperazin-1-yl)-propoxy]-phenly]-acetamide] it is > 7.00. Same read-out and setting: the figure for `COc1ccccc1N1CCN(CC(O)COc2ccc(C)cc2NC(C)=O)CC1` (stereo not drawn) [Compound 19, N-[2-[2-Hydroxy-3-[4-(2-methoxy-phenyl)-piperazin-1-yl]-proxpoxy]-5-methyl-phenyl]-acetamide] is > 7.00. Still for that read-out and setting: the result for `Nc1ccccc1OCC(O)CN1CCN(c2ccccc2)CC1` (stereo not drawn) [Compound 2, 1-(2-Amino-phenoxy)-3-(4-phenyl-piperazin-1-yl)-propan-2-ol] reads > 7.00; that for `Nc1ccccc1OCC(O)CN1CCN(c2ccccc2[N+](=O)[O-])CC1` (stereo not drawn) [Compound 22, 1-(2-Amino-phenoxy)-3-[4-(2-nitro-phenyl)-piperazin-1-yl]-propan-2-ol], > 7.00; that for `COc1ccccc1N1CCN(CC(COc2ccccc2NC(C)=O)OC(C)=O)CC1` (single isomer, unassigned) [31(+), Ethyl [+]-2-(2-acetylamino-phenoxy)-1-[4-(2-methoxy-phenyl)-piperazin-1-ylmethyl]acetate], > 7.00. For `OC(COc1ccccc1)CN1CCN(c2ccccc2)CC1` (stereo not drawn) [Compound 1, 1-Phenoxy-3-(4-phenyl-piperazin-1-yl)-propan-2-ol], the negative logarithm of the Ki (pKi) is > 7.00. On the same count and under the same terms, the figure for `COc1ccccc1N1CCN(CC(O)COc2cc(C)ccc2NC(C)=O)CC1` (stereo not drawn) [Compound 20, N-[2-[2-Hydroxy-3-[4-(2-methoxy-phenyl)-piperazin-1-yl]-propoxy]-4-methyl-phenyl]-acetamide] is > 7.00; for `CC(=O)Nc1ccccc1OCC(O)CN1CCN(c2ccccc2C(F)(F)F)CC1` (stereo not drawn) [Compound 7, N-[2-[2-Hydroxy-3-[4-(2-trifluoromethyl-phenyl)-piperazin-1yl]-propoxy]phenyl]-acetamide] it is > 7.00. Same read-out and setting: the figure for `CCC(=O)Nc1ccccc1OCC(O)CN1CCN(c2ccccc2OC)CC1` (stereo not drawn) [Compound 13, N-[2-[2-Hydroxy-3-[4-(2-methoxy-phenyl)-piperazin-1-yl]-propoxy]-phenyl]propionamide] is > 7.00; for `CCOc1ccccc1N1CCN(CC(O)COc2ccccc2NC(=O)CC)CC1` (stereo not drawn) [Compound 21, N-[2-[3-[4-(2-Ethoxy-phenyl)-piperazin-1-yl]-2-hydroxy-propoxy]-phenyl]propionamide] it is > 7.00. Still for that read-out and setting: the figure for `C/C=C/C(=O)Nc1ccccc1OCC(O)CN1CCN(c2ccccc2OC)CC1` (single isomer, unassigned) [Compound 16, [+]-(E)-But-2-enolic acid [2-[2-hydroxy-3-[4-(2-methoxy-phenyl)-piperazin-1-yl]-propoxy]-phenyl]-amide] is > 7.00. As to `COc1ccccc1N1CCN(CC(O)COc2ccccc2NC(N)=O)CC1` (stereo not drawn) [Compound 18, [2-[2-Hydroxy-3-[4-(2-methoxy-phenyl)-piperazin-1-yl]propoxy]-phenyl]-urea], the pKi was > 7.00. The same measure, in the same setting: the result for `COc1ccccc1N1CCN(CC(O)COc2ccccc2NC(=O)c2ccco2)CC1` (stereo not drawn) [Compound 17, Furan-2-carboxylic acid [2-[2hydroxy-3-[4-(2-methoxy-phenyl)piperazin-1-yl]-propoxy]-phenyl]-amide] reads > 7.00; that for `NC(=O)c1ccccc1OCC(O)CN1CCN(c2ccccc2)CC1` (stereo not drawn) [Compound 4, 2-[2-Hydroxy-3-(4-phenyl-piperazin-1-yl)-propoxy]-benzamide], > 7.00; that for `OC(COc1cccc(C(F)(F)F)c1)CN1CCN(c2ccc(Cl)cc2)CC1` (stereo not drawn) [Compound 5, 1-[4-(4-Chloro-phenyl)-piperazin-1-yl]-3-(3-trifluoro-methyl-phenoxy)-propan-2-ol], > 7.00. Still for that read-out and setting: the result for `COc1ccccc1N1CCN(CC(O)COc2ccccc2NC(C)=O)CC1` (single isomer, unassigned) [11(+), [+]-N-[2-[2-Hydroxy-3-[4-(2-methoxy-phenyl)-piperazin-1-yl]-propoxy]phenyl]-acetamide] reads > 7.00; that for `CC(=O)Nc1ccccc1OCC(O)CN1CCN(c2ccccc2O)CC1` (stereo not drawn) [Compound 8, N-[2-[2-Hydroxy-3-[4-(2-hydroxy-phenyl)-piperazin-1-yl]-propoxy]-phenyl]-acetamide], > 7.00; that for `COc1ccccc1N1CCN(CC(O)COc2ccccc2NC(C)=O)CC1` (racemic) [10(rac), N-[2-[2-Hydroxy-3-[4-(2-methoxy-phenyl)-piperazin-1-yl]-propoxy]-phenyl]-acetamide], > 7.00.

On to `COc1ccccc1N1CCN(CC(O)COc2ccccc2N)CC1` (single isomer, unassigned) [9(+), [+]-1-(2-Amino-phenoxy)-3-[4(2-methoxy-phenyl)-piperazin-1-yl]-propan-2-ol], for which the pKi was > 7.00. Same read-out and setting: the figure for `COc1ccccc1N1CCN(CC(COc2ccccc2NC(C)=O)OC(C)=O)CC1` (stereo not drawn) [Compound 30, Ethyl 2-(2-acetylamino-phenoxy)-1-[4-(2-methoxy-phenyl)-piperazin-1-ylmethyl]-acetate] is > 7.00; for `COc1ccccc1N1CCN(CC(O)COc2ccccc2NC(=O)C(C)(C)C)CC1` (stereo not drawn) [Compound 15, N-[2-[2-Hydroxy-3-[4-(2-methoxy-phenyl)-piperazin-1-yl]-propoxy]-phenyl]-2,2-dimethyl-propionamide] it is > 7.00. On the same count and under the same terms, the result for `CCCCCC(=O)Nc1ccccc1OCC(O)CN1CCN(c2ccccc2OC)CC1` (stereo not drawn) [Compound 14, Hexanoic acid [2-[2-hydroxy-3-[4-(2-methoxy-phenyl)-piperazin-1-yl]propoxy]-phenyl]-amide] reads > 7.00.

Staying with this experiment, now noted: Table 2, 200 pM [3H]spiperone, room temperature, 90 minutes.
As to `COc1ccccc1N1CCN(CC(O)COc2ccc([N+](=O)[O-])cc2NC(C)=O)CC1` (stereo not drawn) [Compound 27], the pKi was 7.82. Take `COc1cc(O)ccc1N1CCN(CC(O)COc2ccccc2NC(C)=O)CC1` (stereo not drawn) [Compound 25]: the pKi is 7.99. Still for that read-out and setting: the result for `CCC(=O)Nc1ccccc1OCC(O)CN1CCN(c2ccccc2)CC1` (stereo not drawn) [Compound 24] reads 7.54; that for `COc1ccccc1N1CCN(CC(O)COc2ccccc2NS(C)(=O)=O)CC1` (stereo not drawn) [Compound 26], 8.49; that for `CC(=O)Nc1ccccc1OCC(O)CN1CCN(c2ccccc2[N+](=O)[O-])CC1` (stereo not drawn) [Compound 29], 8.06. On the same count and under the same terms, the figure for `Cc1cccc(OCC(O)CN2CCN(c3ccccc3)CC2)c1` (stereo not drawn) [Compound 23] is 8.02.
